Results taken from patent publication US4652646A, “Thiazolo[3,2-a][1,2,3]triazolo[4,5-d]pyrimidine and [1,3,4]thiadiazolo[3,2-a][1,2,3]triazolo[4,5-d]pyrimidine derivatives” (Daiichi Seiyaku Co., Ltd., priority 1984, dated 1987).

Key:
[1] = test system: release of histamine induced by passive peritoneal anaphylaxis (PPA) reaction; experiment: Passive Peritoneal Anaphylaxis (PPA) test: inhibition of histamine release; assay type: in vivo, Sprague-Dawley male rats; conditions: ip, 5 min; rat PPA; 1 mg/kg intraperitoneally 30 seconds before egg albumin
Experimental: (§1) 1 mg of egg albumin dissolved in 0.2 ml of saline was intramuscularly administered to each of Sprague-Dawley male rats weighing 300 to 350 g (Charles River Japan Inc.), and then 1 ml of a suspension of sterilized Bordetella pertussis (2×10^10 cells) in saline was administered intraperitoneally to the rats. After 14 days, blood was drawn from the rats to obtain an antiserum.
(§2) The test was conducted according to the method of Orange et al [Orange, R. P., Stechschulte, D. J., Austen, K. F., J. Immunol., 105, pp1087-1095 (1970)]. Sprague-Dawley male rats weighing 250 to 400 g (5 rats per group) were passively sensitized by administering 5 ml of 5-fold dilution antiserum (prepared by diluting the above antiserum with saline). 2 hours later, 5 ml of an egg albumin solution prepared by dissolving 2 mg of egg albumin in phosphate buffered saline containing 0.9 mM of calcium chloride was administered intraperitoneally to the rats. After 5 minutes, the rats were sacrificed by decapitation, and peritoneal fluid was pooled and centrifuged at 300×G at 4° C. for 10 minutes. Then, amounts of SRS-A and histamine in the supernatant were determined.
The quantitative determination of histamine was carried out according to the method of Shore et al [Shore, P. A., Bunkhalter, A. H., Cohn, V. H., J. Pharmacol. Exp. Ther., 127, pp182-186 (1959)], and the total released amount of histamine per rat (μg/rat) was calculated.
(§3) In this test, the test compound of this invention was administered as follows. 2 mg of a test compound was dissolved in 10 ml of phosphate buffered saline containing 0.9 mM of calcium chloride, an equimolar amount of sodium hydroxide to test compound, 2% of dimethyl sulfoxide and 2% of ethanol, and the solution was administered intraperitoneally to the rats at a dose of 1 mg/kg 30 seconds before the injection of egg albumin for inducing PPA. For a control group, the same solution without test compound and sodium hydroxide was administered.
(§4) The inhibitory activity on release of histamine and SRS-A by the PPA reaction in the treated group was calculated by the following formula: [formula] wherein: a represents a mean value of released amount in the control group.
(§5) b represents a mean value of released amount in the treated group.
(§6) c represents a mean value of spontaneously released amount.

[2] = test system: release of SRS-A induced by passive peritoneal anaphylaxis (PPA) reaction; experiment: Passive Peritoneal Anaphylaxis (PPA) test: inhibition of SRS-A release; assay type: in vivo, Sprague-Dawley male rats; conditions: rat PPA
Experimental: as §1, §2
The quantitative determination of SRS-A was carried out according to the method of Stechschulte et al [Stechschulte, D. J., Auste, K. F., Bloch, K. J., J. Exp. Med., 125, pp127-147 (1967)] using a guinea pig ileum specimen in the presence of mepyramine and atropine. The amount of SRS-A was expressed in terms of unit, i.e., one unit of SRS-A activity was defined as the concentration required to produce a contraction of guinea pig ileum equal in amplitude to that produced by 5 ng of histamine, and the total released amount of SRS-A per rat (unit/rat) was calculated.
as §3, §4, §5, §6

[3] = test system: passive cutaneous anaphylaxis (PCA) reaction; experiment: Passive cutaneous anaphylaxis (PCA) test; assay type: in vivo, Sprague-Dowley male rats; conditions: rat PCA, oral administration
Experimental: as §1
In this test, the antiserum described in Test Example 1 was used after it was diluted with saline so as to provide a blue spot having a diameter of about 10 mm in the following control group.
Sprague-Dowley male rats weighing about 180 g (5 rats per group) were sensitized by injecting 0.05 ml of the diluted antiserum into the shaved dorsal skin. 48 hours later, the animals were challenged with 1 ml of saline containing 5 mg of egg albumin and 5 mg of Evans blue dye administered via a tail vein. 30 minutes later, the rats were sacrificed by decapitation. The dorsal skin was removed, and the long and short axis of the each wheal was measured.
In this test, the test compound was administered as follows. 20 mg of a test compound was suspended in a 0.5% CMC aqueous solution, and the suspension was administered to each of the rats in an amount of 20 mg/kg 30 minutes before the antigen challenge. For a control group, only a 0.5% CMC solution was administered.
The inhibitory activity on the PCA reaction in the treated group was calculated by the following formula: [formula] wherein: a represents a mean value of blue spot area in the control group.
b represents a mean value of blue spot area in the treated group.

[4] = test system: passive cutaneous anaphylaxis (PCA) reaction; experiment: Passive cutaneous anaphylaxis (PCA) test; assay type: in vivo, Sprague-Dowley male rats; conditions: 0.5 h; rat PCA; DSCG administered at 100 mg/kg of body weight
[5] = background art; cited from earlier work

With `O=C(O)c1cc(=O)c2c(OCC(O)COc3cccc4oc(C(=O)O)cc(=O)c34)cccc2o1` [DSCG, Sodium Cromoglycate, reference compound] the inhibition in vivo at 1 mg/kg [1] was 93%, the inhibition in vivo at 1 mg/kg ([2]; ip, 5 min, 1 mg/kg intraperitoneally 30 seconds before egg albumin) was 0% and the “inhibition of release of SRS-A in the PPA reaction (in words)” value [2] was “did not inhibit the release of SRS-A in the PPA reaction”. The “inhibition of the PCA reaction in oral administration (in words)” value [3] was “did not inhibit the PCA reaction in oral administration”, the inhibition in vivo at 100 mg/kg [4] was 8% and the “effectiveness in oral administration (in words)” value [5] was “not effective in oral administration”.
